In publication PMC5428509, “Irreversible inhibition of BTK kinase by a novel highly selective inhibitor CHMFL-BTK-11 suppresses inflammatory response in rheumatoid arthritis model” (Scientific Reports, 2017):

How the values were obtained:
Assay in all cases: biochemical
Design in all cases: KinomeScan competition binding panel (DiscoveRx), percent of control at 1 uM
Conditions in all cases: read-out: Percent Control
[1] = target: EGFR(L861Q) (Homo sapiens, UniProt P00533, L861Q)
Source text: (§1) In order to further confirm the binding mode, we then tested the compounds in the BTK wild-type (wt) and BTK C481S mutant with immunoblotting by looking at the BTK Y551 auto-phosphorylation. […] In addition, a covalent bond was preferred to form between the […] acrylamide and Cys-481 near the hinge binding area, which further confirmed its irreversible binding mode (Fig. 1d). We next investigated CHMFL-BTK-11′s selectivity profile in 456 kinases/mutants with KinomeScan^TM technology.

[2] = target: T1, BIKE (Homo sapiens, UniProt Q9NSY1)
T1 construct: gene BMP2K
Source text: as §1

[3] = target: PIK3CD (Homo sapiens, UniProt O00329)
Source text: as §1

[4] = target: PIK3CA(M1043I) (Homo sapiens, UniProt P42336, M1043I)
Source text: as §1

[5] = target: MKNK1 (Homo sapiens, UniProt Q9BUB5)
Source text: as §1

[6] = target: T2, PIK4CB (Homo sapiens, UniProt Q9UBF8)
T2 construct: gene PI4KB
Source text: as §1

[7] = target: PHKG1 (Homo sapiens, UniProt Q16816)
Sequence of PHKG1 (Q16816 whole entry): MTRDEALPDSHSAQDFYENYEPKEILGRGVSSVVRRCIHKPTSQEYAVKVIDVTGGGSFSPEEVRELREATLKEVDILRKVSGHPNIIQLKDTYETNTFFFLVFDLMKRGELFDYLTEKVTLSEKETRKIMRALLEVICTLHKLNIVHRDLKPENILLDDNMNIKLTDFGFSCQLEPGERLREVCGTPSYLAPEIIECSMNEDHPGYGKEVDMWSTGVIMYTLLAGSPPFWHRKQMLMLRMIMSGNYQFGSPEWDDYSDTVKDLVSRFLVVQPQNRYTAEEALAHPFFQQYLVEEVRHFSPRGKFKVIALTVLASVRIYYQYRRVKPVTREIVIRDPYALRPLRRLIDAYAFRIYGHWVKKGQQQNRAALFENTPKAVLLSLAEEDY
Source text: as §1

[8] = target: KIT-autoinhibited (Homo sapiens, UniProt P10721)
Source text: as §1

[9] = target: T3, MLK2 (Homo sapiens, UniProt Q02779)
T3 construct: gene MAP3K10
Source text: as §1

[10] = target: T4, JAK3(JH1domain-catalytic) (Homo sapiens, UniProt P52333)
T4 construct: JH1domain-catalytic
T4 sequence (P52333 whole entry): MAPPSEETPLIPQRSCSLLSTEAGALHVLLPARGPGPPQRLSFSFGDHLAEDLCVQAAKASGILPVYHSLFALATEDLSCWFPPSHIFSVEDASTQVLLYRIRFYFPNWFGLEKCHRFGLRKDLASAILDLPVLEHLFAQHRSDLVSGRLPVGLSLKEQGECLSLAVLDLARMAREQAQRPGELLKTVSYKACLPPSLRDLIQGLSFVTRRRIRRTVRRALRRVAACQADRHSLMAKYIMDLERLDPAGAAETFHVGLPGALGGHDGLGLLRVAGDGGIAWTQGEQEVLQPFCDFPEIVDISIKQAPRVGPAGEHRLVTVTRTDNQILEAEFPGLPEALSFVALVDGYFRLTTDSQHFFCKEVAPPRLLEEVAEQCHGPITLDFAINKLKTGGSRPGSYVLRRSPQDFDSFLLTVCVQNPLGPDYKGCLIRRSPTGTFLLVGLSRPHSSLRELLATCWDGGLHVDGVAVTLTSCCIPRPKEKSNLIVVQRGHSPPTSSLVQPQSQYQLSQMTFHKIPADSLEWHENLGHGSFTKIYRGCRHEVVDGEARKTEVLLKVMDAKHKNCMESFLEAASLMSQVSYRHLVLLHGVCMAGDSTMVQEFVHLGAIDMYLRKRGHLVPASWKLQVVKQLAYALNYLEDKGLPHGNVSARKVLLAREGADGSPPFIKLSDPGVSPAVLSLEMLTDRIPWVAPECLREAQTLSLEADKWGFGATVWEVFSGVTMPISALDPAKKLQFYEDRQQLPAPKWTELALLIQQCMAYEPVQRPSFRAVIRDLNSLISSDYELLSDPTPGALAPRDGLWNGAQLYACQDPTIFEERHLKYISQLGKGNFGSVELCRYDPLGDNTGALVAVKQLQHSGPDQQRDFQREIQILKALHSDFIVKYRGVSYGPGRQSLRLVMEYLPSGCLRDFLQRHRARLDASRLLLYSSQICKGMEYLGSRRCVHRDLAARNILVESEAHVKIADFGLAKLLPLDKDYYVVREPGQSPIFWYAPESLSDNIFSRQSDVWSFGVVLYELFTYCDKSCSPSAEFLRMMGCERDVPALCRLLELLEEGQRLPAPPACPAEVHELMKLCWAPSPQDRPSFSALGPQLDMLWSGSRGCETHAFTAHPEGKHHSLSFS
Source text: as §1

[11] = target: T5, RSK4(Kin.Dom.2-C-terminal) (Homo sapiens, UniProt Q9UK32)
T5 construct: gene RPS6KA6; Kin.Dom.2-C-terminal
Source text: as §1

[12] = target: T6, PYK2 (Homo sapiens, UniProt Q14289)
T6 construct: gene PTK2B
Source text: as §1

[13] = target: DDR2 (Homo sapiens, UniProt Q16832)
Sequence of DDR2 (Q16832 whole entry): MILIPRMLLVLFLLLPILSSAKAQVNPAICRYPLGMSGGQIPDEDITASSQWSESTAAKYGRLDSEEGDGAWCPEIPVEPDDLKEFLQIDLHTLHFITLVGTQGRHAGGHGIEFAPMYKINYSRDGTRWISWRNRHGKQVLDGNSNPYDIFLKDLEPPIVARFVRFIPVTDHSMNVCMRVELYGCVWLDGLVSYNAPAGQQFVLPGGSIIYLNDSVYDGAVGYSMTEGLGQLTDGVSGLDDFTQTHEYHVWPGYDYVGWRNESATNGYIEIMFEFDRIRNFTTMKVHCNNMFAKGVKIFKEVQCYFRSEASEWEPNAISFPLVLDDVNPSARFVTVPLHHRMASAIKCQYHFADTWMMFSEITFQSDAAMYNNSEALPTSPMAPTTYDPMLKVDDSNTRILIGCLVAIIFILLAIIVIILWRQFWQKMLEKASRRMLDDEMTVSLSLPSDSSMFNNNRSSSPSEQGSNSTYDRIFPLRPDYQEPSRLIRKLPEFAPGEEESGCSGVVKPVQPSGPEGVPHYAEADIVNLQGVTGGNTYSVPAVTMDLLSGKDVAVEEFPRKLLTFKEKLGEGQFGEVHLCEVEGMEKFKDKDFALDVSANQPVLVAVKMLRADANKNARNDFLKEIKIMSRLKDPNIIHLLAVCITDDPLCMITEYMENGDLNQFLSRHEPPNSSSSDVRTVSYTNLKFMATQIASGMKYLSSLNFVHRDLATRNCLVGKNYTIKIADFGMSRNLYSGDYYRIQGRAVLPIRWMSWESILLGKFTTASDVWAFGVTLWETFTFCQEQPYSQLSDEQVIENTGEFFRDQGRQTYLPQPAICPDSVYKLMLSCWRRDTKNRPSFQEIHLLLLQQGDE
Source text: as §1

[14] = target: FGFR3 (Homo sapiens, UniProt P22607)
Source text: as §1

[15] = target: IRAK1 (Homo sapiens, UniProt P51617)
Sequence of IRAK1 (P51617 whole entry): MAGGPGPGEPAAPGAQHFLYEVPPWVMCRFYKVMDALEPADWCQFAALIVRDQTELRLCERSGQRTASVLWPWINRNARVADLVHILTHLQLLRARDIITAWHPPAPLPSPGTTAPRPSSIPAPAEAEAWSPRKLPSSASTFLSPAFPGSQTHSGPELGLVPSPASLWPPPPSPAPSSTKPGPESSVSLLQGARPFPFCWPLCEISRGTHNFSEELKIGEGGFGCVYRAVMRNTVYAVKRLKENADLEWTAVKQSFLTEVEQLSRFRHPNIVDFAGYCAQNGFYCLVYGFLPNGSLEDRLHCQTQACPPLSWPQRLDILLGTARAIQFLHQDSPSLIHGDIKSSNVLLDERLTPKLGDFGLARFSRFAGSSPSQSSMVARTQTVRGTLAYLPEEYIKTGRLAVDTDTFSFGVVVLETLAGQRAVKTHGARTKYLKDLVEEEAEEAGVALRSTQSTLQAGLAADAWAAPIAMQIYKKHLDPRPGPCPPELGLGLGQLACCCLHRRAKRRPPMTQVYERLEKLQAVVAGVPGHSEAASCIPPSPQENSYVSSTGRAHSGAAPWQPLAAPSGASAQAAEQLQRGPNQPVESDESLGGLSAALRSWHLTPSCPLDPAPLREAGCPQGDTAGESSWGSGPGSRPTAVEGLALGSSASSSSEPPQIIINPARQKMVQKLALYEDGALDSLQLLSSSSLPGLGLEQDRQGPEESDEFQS
Source text: as §1

[16] = target: CSNK1A1 (Homo sapiens, UniProt P48729)
Sequence of CSNK1A1 (P48729 whole entry): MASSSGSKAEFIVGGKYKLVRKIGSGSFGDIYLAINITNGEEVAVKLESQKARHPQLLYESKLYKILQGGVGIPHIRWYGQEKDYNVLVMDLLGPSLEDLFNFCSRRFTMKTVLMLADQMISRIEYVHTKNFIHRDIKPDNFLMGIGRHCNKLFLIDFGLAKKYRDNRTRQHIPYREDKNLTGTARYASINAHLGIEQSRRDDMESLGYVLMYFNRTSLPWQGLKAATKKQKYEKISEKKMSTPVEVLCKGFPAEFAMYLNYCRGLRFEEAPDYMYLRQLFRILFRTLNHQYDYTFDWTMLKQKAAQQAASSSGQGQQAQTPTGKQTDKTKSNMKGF
Source text: as §1

[17] = target: T7, PFTK1 (Homo sapiens, UniProt O94921)
T7 construct: gene CDK14
T7 sequence (O94921 whole entry): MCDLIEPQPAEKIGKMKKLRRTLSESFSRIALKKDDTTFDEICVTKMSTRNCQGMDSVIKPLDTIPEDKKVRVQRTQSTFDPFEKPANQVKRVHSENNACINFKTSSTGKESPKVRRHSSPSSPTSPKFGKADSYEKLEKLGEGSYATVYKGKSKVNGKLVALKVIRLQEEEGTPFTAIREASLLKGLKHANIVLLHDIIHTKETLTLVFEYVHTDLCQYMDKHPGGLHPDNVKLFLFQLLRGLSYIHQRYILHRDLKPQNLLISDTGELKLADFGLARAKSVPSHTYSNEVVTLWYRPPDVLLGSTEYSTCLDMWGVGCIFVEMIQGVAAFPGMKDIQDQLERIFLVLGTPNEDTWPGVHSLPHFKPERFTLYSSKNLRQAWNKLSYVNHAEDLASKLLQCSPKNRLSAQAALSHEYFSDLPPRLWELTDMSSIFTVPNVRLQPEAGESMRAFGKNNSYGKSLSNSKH
Source text: as §1

[18] = target: T8, JNK2 (Homo sapiens, UniProt P45984)
T8 construct: gene MAPK9
Source text: as §1

[19] = target: MYLK2 (Homo sapiens, UniProt Q9H1R3)
Source text: as §1

[20] = target: PIP5K1A (Homo sapiens, UniProt Q99755)
Source text: as §1

[21] = target: T9, MLK1 (Homo sapiens, UniProt P80192)
T9 construct: gene MAP3K9
T9 sequence (P80192 whole entry): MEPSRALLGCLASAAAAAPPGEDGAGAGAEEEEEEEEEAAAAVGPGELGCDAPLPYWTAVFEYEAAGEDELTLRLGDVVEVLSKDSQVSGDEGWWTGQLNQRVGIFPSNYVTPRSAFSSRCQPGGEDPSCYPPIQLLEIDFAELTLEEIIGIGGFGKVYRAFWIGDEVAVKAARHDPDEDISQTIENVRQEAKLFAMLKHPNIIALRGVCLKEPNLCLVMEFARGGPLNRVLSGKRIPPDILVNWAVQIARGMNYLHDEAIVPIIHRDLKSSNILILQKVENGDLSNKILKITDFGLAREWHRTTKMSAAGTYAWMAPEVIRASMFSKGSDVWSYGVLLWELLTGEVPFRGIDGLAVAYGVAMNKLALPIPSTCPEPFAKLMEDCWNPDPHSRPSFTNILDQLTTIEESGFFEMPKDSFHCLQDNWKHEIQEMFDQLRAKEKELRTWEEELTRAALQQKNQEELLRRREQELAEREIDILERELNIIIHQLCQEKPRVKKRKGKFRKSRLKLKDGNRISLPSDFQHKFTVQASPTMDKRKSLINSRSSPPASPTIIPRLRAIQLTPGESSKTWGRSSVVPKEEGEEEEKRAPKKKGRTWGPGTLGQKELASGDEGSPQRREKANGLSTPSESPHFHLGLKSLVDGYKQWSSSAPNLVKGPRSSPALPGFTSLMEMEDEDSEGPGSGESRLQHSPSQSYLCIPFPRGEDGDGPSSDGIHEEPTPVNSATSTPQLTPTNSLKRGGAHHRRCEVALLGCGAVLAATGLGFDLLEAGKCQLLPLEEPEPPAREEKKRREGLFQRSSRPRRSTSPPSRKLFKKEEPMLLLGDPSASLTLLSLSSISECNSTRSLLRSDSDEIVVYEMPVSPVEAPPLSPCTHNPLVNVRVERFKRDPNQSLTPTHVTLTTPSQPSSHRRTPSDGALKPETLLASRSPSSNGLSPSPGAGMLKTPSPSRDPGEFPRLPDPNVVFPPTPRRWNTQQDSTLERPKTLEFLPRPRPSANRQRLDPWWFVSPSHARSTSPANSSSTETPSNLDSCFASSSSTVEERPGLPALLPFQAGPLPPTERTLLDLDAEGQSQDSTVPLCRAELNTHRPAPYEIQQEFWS
Source text: as §1

[22] = target: AURKB (Homo sapiens, UniProt Q96GD4)
Source text: as §1

[23] = target: GRK4 (Homo sapiens, UniProt P32298)
Source text: as §1

[24] = target: T10, ABL1(F317L)-nonphosphorylated (Homo sapiens, UniProt P00519, F317L)
T10 construct: nonphosphorylated
Source text: as §1

Question: `C=CC(=O)Nc1cc(-n2c(=O)ccc3cnc4ccc(-n5cccn5)cc4c32)ccc1C` [CHMFL-BTK-11] was tested. Which remaining binding at 1 µM [1] did it give?
Answer: 71%

Question: What about the remaining binding at 1 µM [2] of the same molecule?
Answer: 91%

Question: What about the remaining binding at 1 µM [3] of the same molecule?
Answer: 100%

Question: What about the remaining binding at 1 µM [4] of the same molecule?
Answer: 99%

Question: And the remaining binding at 1 µM [5]?
Answer: 92%

Question: What about the remaining binding at 1 µM [6] of the same molecule?
Answer: 100%

Question: What about the remaining binding at 1 µM [7] of the same molecule?
Answer: 100%

Question: What about the remaining binding at 1 µM [8] of the same molecule?
Answer: 83%

Question: What about the remaining binding at 1 µM [9] of the same molecule?
Answer: 94%

Question: And the remaining binding at 1 µM [10]?
Answer: 5.7%

Question: What about the remaining binding at 1 µM [11] of the same molecule?
Answer: 100%

Question: What about the remaining binding at 1 µM [12] of the same molecule?
Answer: 100%

Question: What about the remaining binding at 1 µM [13] of the same molecule?
Answer: 99%

Question: What about the remaining binding at 1 µM [14] of the same molecule?
Answer: 89%

Question: What about the remaining binding at 1 µM [15] of the same molecule?
Answer: 87%

Question: What about the remaining binding at 1 µM [16] of the same molecule?
Answer: 100%

Question: And the remaining binding at 1 µM [17]?
Answer: 100%

Question: And the remaining binding at 1 µM [18]?
Answer: 100%

Question: And the remaining binding at 1 µM [19]?
Answer: 100%

Question: And the remaining binding at 1 µM [20]?
Answer: 100%

Question: What about the remaining binding at 1 µM [21] of the same molecule?
Answer: 100%

Question: And the remaining binding at 1 µM [22]?
Answer: 94%

Question: What about the remaining binding at 1 µM [23] of the same molecule?
Answer: 94%

Question: And the remaining binding at 1 µM [24]?
Answer: 96%
